IC50 data for 28 compounds are collected here from US9493446B2, “Orexin receptor antagonists which are [ortho bi-(hetero-)aryl]-[2-(meta bi-(hetero-)aryl)-pyrrolidin-1-yl]-methanone derivatives” (Actelion Pharmaceuticals Ltd, priority 2012, dated 2016).

pIC50: −log10 of the molar value. Where two headings read alike, the source gives them in different places. Some results are limits rather than exact numbers.

One assay concerns the target human orexin-2 receptor (Homo sapiens (Human), UniProt O43614). The assay is described as follows: Intracellular calcium measurement (FLIPR), CHO cells expressing human orexin-2 receptor, 3 nM orexin-A. The class given is cell-based. The settings on record: read-out: IC50 OX2. The essentials: (§1)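 Antagonist is added 120 min before agonist. Fluo-4 AM-loaded CHO cells carry human orexin-1 or orexin-2 receptor, and calcium is read by FLIPR.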
On the technique in general: A change in cytosolic calcium serves as a functional read-out for many receptors and channels.

For the next assay, the target named is orexin-1 (Homo sapiens (Human), UniProt O43613). The assay can be described thus: Intracellular calcium measurement (FLIPR), CHO cells expressing human orexin-1 receptor, 3 nM orexin-A. The following applies: CHO cells expressing human orexin-1 receptor, FLIPR, 3 nM orexin-A; geometric mean if determined several times; read-out: IC50 OX1. The assay is classed as cell-based. A digest of the protocol:
as §1

[1] abbreviates: CHO cells expressing human orexin-2 receptor, FLIPR, 3 nM orexin-A, geometric mean if determined several times.

Broadly, the pIC50 is the negative decadic logarithm of the IC50, by convention in mol/L.

human orexin-2 receptor, sequence (O43614 whole entry): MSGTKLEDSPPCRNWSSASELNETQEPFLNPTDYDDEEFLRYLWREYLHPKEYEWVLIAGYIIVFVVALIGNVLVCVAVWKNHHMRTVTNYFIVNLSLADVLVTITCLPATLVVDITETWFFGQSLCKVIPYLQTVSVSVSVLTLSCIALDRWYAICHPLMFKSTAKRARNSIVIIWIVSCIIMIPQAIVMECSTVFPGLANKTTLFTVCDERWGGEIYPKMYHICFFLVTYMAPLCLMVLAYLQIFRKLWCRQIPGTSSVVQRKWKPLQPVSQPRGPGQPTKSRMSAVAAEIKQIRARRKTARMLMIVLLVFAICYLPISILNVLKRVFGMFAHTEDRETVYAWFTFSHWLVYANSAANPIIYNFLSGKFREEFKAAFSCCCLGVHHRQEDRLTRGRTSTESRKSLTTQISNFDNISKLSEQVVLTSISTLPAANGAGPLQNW
orexin-1, sequence (O43613 whole entry): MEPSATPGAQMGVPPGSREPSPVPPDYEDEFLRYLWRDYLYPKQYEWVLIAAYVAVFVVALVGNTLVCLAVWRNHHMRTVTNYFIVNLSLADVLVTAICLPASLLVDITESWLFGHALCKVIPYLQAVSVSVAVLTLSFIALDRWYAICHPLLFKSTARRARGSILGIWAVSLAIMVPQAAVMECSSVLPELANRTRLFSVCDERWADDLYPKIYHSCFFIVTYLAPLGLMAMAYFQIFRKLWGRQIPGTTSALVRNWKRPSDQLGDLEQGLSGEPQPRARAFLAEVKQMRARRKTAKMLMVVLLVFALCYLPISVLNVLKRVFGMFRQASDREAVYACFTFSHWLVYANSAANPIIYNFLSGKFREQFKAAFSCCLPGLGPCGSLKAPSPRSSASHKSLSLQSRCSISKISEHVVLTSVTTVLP

In the case of `O=C(c1ncoc1-c1ccccc1)N1CCC[C@H]1c1nnc(-c2ccccc2OC(F)(F)F)[nH]1` [compound 484, (5-Phenyl-oxazol-4-yl)-{(S)-2-[5-(2-trifluoromethoxy-phenyl)-4H-[1,2,4]triazol-3-yl]-pyrrolidin-1-yl}-methanone], the pIC50 was 5.52 on human orexin-2 receptor (setting [1]) and 5.30 at orexin-1.
For `Cc1cccc(-c2scnc2C(=O)N2CCC[C@H]2c2nnc(-c3ccccc3OC(F)(F)F)[nH]2)c1` [compound 485, (5-m-Tolyl-thiazol-4-yl)-{(S)-2-[5-(2-trifluoromethoxy-phenyl)-4H-[1,2,4]triazol-3-yl]-pyrrolidin-1-yl}-methanone] the same measures were 5.91 and 5.89.
For the compound `Cc1cccc(-c2ocnc2C(=O)N2CCC[C@H]2c2nnc(-c3ccccc3OC(F)(F)F)[nH]2)c1` [compound 486, (5-m-Tolyl-oxazol-4-yl)-{(S)-2-[5-(2-trifluoromethoxy-phenyl)-4H-[1,2,4]triazol-3-yl]-pyrrolidin-1-yl}-methanone], the pIC50 on human orexin-2 receptor (setting [1]) was 5.50; on orexin-1, 5.63.
Regarding `CCOc1ncccc1-c1nnc([C@@H]2CCCN2C(=O)c2cc(Cl)c(C)cc2-n2nccn2)[nH]1` [compound 487, (5-Chloro-4-methyl-2-[1,2,3]triazol-2-yl-phenyl)-{(S)-2-[5-(2-ethoxy-pyridin-3-yl)-4H-[1,2,4]triazol-3-yl]-pyrrolidin-1-yl}-methanone], the figures for the pIC50 on human orexin-2 receptor (setting [1]) and on orexin-1 were 8.10 and 7.64, respectively.
On to `COc1c(Cl)cccc1-c1nnc([C@@H]2CCCN2C(=O)c2cc(C)ccc2-n2nccn2)[nH]1` [compound 488, {(S)-2-[5-(3-Chloro-2-methoxy-phenyl)-4H-[1,2,4]triazol-3-yl]-pyrrolidin-1-yl}-(5-methyl-2-[1,2,3]triazol-2-yl-phenyl)-methanone], for which the pIC50 was 7.85 at human orexin-2 receptor (setting [1]) and 6.87 on orexin-1.
The like results for `COc1c(Cl)cccc1-c1nnc([C@@H]2CCCN2C(=O)c2ccc(C)cc2-n2nccn2)[nH]1` [compound 489, {(S)-2-[5-(3-Chloro-2-methoxy-phenyl)-4H-[1,2,4]triazol-3-yl]-pyrrolidin-1-yl}-(4-methyl-2-[1,2,3]triazol-2-yl-phenyl)-methanone] were, in that order, 8.00 and 7.21.
For `COc1cc(C(=O)N2CCC[C@H]2c2nnc(-c3cccc(Cl)c3OC)[nH]2)c(-n2nccn2)cc1C` [compound 490, {(S)-2-[5-(3-Chloro-2-methoxy-phenyl)-4H-[1,2,4]triazol-3-yl]-pyrrolidin-1-yl}-(5-methoxy-4-methyl-2-[1,2,3]triazol-2-yl-phenyl)-methanone] the same measures were 8.70 and 6.92.
For `COc1cc(C(=O)N2CCC[C@H]2c2nnc(-c3cccc(Cl)c3OC)[nH]2)c(-n2nccn2)cc1Cl` [compound 491, {(S)-2-[5-(3-Chloro-2-methoxy-phenyl)-4H-[1,2,4]triazol-3-yl]-pyrrolidin-1-yl}-(4-chloro-5-methoxy-2-[1,2,3]triazol-2-yl-phenyl)-methanone] the same measures were 9.00 and 7.48.
As to `COc1c(Cl)cccc1-c1nnc([C@@H]2CCCN2C(=O)c2cc(C)c(C)cc2-n2nccn2)[nH]1` [compound 492, {(S)-2-[5-(3-Chloro-2-methoxy-phenyl)-4H-[1,2,4]triazol-3-yl]-pyrrolidin-1-yl}-(4,5-dimethyl-2-[1,2,3]triazol-2-yl-phenyl)-methanone], the pIC50 was 8.52 on human orexin-2 receptor (setting [1]) and 7.57 at orexin-1.
As for `Cc1ccc(-n2nccn2)c(C(=O)N2CCC[C@H]2c2nnc(-c3cccc(Cl)c3C)[nH]2)c1` [compound 493], the pIC50 on human orexin-2 receptor was 7.54; on orexin-1 it was 5.94.
Turning to `Cc1ccc(-n2nccn2)c(C(=O)N2CCC[C@H]2c2nnc(-c3cccc(F)c3C)[nH]2)c1` [compound 494, {(S)-2-[5-(3-Fluoro-2-methyl-phenyl)-4H-[1,2,4]triazol-3-yl]-pyrrolidin-1-yl}-(5-methyl-2-[1,2,3]triazol-2-yl-phenyl)-methanone], the pIC50 was 7.57 on human orexin-2 receptor (setting [1]) and 6.07 at orexin-1.
Turning to `CCOc1ccccc1-c1nnc([C@@H]2CCCN2C(=O)c2cc(C)ccc2-n2nccn2)[nH]1` [compound 495, {(S)-2-[5-(2-Ethoxy-phenyl)-4H-[1,2,4]triazol-3-yl]-pyrrolidin-1-yl}-(5-methyl-2-[1,2,3]triazol-2-yl-phenyl)-methanone], the pIC50 at human orexin-2 receptor (setting [1]) was 7.42; at orexin-1 it was 7.41.
For `CCOc1ncccc1-c1nnc([C@@H]2CCCN2C(=O)c2cc(C)ccc2-n2nccn2)[nH]1` [compound 496, {(S)-2-[5-(2-Ethoxy-pyridin-3-yl)-4H-[1,2,4]triazol-3-yl]-pyrrolidin-1-yl}-(5-methyl-2-[1,2,3]triazol-2-yl-phenyl)-methanone] the same measures were 7.30 and 7.24.
For the compound `COc1c(F)cccc1-c1nnc([C@@H]2CCCN2C(=O)c2cc(C)ccc2-n2nccn2)[nH]1` [compound 497, {(S)-2-[5-(3-Fluoro-2-methoxy-phenyl)-4H-[1,2,4]triazol-3-yl]-pyrrolidin-1-yl}-(5-methyl-2-[1,2,3]triazol-2-yl-phenyl)-methanone], the values for the pIC50 on human orexin-2 receptor (setting [1]) and at orexin-1 were 7.34 and 7.31, respectively.
For `Cc1cc(-n2nccn2)c(C(=O)N2CCC[C@H]2c2nnc(-c3ccccc3OC(F)(F)F)[nH]2)cc1Cl` [compound 500] the same measures were 8.70 and 8.10.
For `Cc1ccc(C(=O)N2CCC[C@H]2c2nnc(-c3ccccc3OC(F)(F)F)[nH]2)c(-n2nccn2)c1` [compound 501, (4-Methyl-2-[1,2,3]triazol-2-yl-phenyl)-{(S)-2-[5-(2-trifluoromethoxy-phenyl)-4H-[1,2,4]triazol-3-yl]-pyrrolidin-1-yl}-methanone] the same measures were 8.40 and 7.57.
Consider `O=C(c1ccccc1-n1nccn1)N1CCC[C@H]1c1nnc(-c2ccccc2OC(F)(F)F)[nH]1` [compound 503, (2-[1,2,3]Triazol-2-yl-phenyl)-{(S)-2-[5-(2-trifluoromethoxy-phenyl)-4H-[1,2,4]triazol-3-yl]-pyrrolidin-1-yl}-methanone], for which the pIC50 on human orexin-2 receptor (setting [1]) was 7.57; at orexin-1, 6.81.
Consider `O=C(c1cc(Cl)ccc1-n1nccn1)N1CCC[C@H]1c1nnc(-c2ccccc2OC(F)(F)F)[nH]1` [compound 504], for which the pIC50 was 8.30 on human orexin-2 receptor and 6.98 on orexin-1.
`Cc1nc(C(=O)N2CCC[C@H]2c2nnc(-c3ccccc3OC(F)(F)F)[nH]2)c(-c2ccccc2)s1` [compound 506, (2-Methyl-5-phenyl-thiazol-4-yl)-{(S)-2-[5-(2-trifluoromethoxy-phenyl)-4H-[1,2,4]triazol-3-yl]-pyrrolidin-1-yl}-methanone]: the values for the pIC50 on human orexin-2 receptor (setting [1]) and on orexin-1 were 6.94 and 6.77, respectively.
The like results for `O=C(c1ccccc1-c1ccccc1)N1CCC[C@H]1c1nnc(-c2ccccc2OC(F)(F)F)[nH]1` [compound 508, Biphenyl-2-yl-{(S)-2-[5-(2-trifluoromethoxy-phenyl)-4H-[1,2,4]triazol-3-yl]-pyrrolidin-1-yl}-methanone] were, in that order, 7.08 and 6.62.
For `COc1cc(C(=O)N2CCC[C@H]2c2nnc(-c3ccccc3OC(F)(F)F)[nH]2)c(-n2nccn2)cc1Cl` [compound 509] the same measures were 8.52 and 7.66.
The like results for `CCc1ccccc1-c1nnc([C@@H]2CCCN2C(=O)c2cc(C)ccc2-n2nccn2)[nH]1` [compound 512, {(S)-2-[5-(2-Ethyl-phenyl)-4H-[1,2,4]triazol-3-yl]-pyrrolidin-1-yl}-(5-methyl-2-[1,2,3]triazol-2-yl-phenyl)-methanone] were, in that order, 7.10 and 6.19.
On to `COc1cccc(-c2nnc([C@@H]3CCCN3C(=O)c3cc(C)ccc3-n3nccn3)[nH]2)c1` [compound 513, {(S)-2-[5-(3-Methoxy-phenyl)-4H-[1,2,4]triazol-3-yl]-pyrrolidin-1-yl}-(5-methyl-2-[1,2,3]triazol-2-yl-phenyl)-methanone], for which the results for the pIC50 at human orexin-2 receptor (setting [1]) and on orexin-1 were 6.74 and 6.09, respectively.
For `COc1ccc(-c2nnc([C@@H]3CCCN3C(=O)c3cc(C)ccc3-n3nccn3)[nH]2)cc1` [compound 514, {(S)-2-[5-(4-Methoxy-phenyl)-4H-[1,2,4]triazol-3-yl]-pyrrolidin-1-yl}-(5-methyl-2-[1,2,3]triazol-2-yl-phenyl)-methanone] the same measures were 5.46 and less than 5.18.
For `CCCOc1ccccc1-c1nnc([C@@H]2CCCN2C(=O)c2cc(C)ccc2-n2nccn2)[nH]1` [compound 515, (5-Methyl-2-[1,2,3]triazol-2-yl-phenyl)-{(S)-2-[5-(2-propoxy-phenyl)-4H-[1,2,4]triazol-3-yl]-pyrrolidin-1-yl}-methanone] the same measures were 6.19 and 6.40.
On to `Cc1ccc(C(=O)N2CCC[C@H]2c2ncc(-c3ccccc3OC(F)(F)F)[nH]2)c(-n2nccn2)c1` [compound 517, (4-Methyl-2-[1,2,3]triazol-2-yl-phenyl)-{(S)-2-[5-(2-trifluoromethoxy-phenyl)-1H-imidazol-2-yl]-pyrrolidin-1-yl}-methanone], for which the pIC50 at human orexin-2 receptor (setting [1]) was 8.70; on orexin-1, 8.22.
As to `CCOc1ccccc1-c1cnc([C@@H]2CCCN2C(=O)c2ccc(C)cc2-n2nccn2)[nH]1` [compound 518, {(S)-2-[5-(2-Ethoxy-phenyl)-1H-imidazol-2-yl]-pyrrolidin-1-yl}-(4-methyl-2-[1,2,3]triazol-2-yl-phenyl)-methanone], the pIC50 on human orexin-2 receptor (setting [1]) was 9.00; at orexin-1 it was 8.70.
`Cc1ccc(-n2nccn2)c(C(=O)N2CCC[C@H]2c2cnc(-c3ccccc3)[nH]2)c1` [compound 519, (5-Methyl-2-[1,2,3]triazol-2-yl-phenyl)-[(S)-2-(2-phenyl-3H-imidazol-4-yl)-pyrrolidin-1-yl]-methanone]: the results for the pIC50 on human orexin-2 receptor (setting [1]) and on orexin-1 were 6.14 and 5.86, respectively.
